≈ marks a conversion by molar mass, not a printed value.
Tests used:
[1] = target: T1, Aspartate α-decarboxylase (ADC) (Helicobacter pylori, UniProt P56065); test: HPLC measurement of β-alanine produced from L-aspartate by purified 6xHis-tagged ADC; format: biochemical
T1 construct: gene panD; recombinant 6xHis-tagged ADC, 117 amino acids for ADC plus six for the His-tag (from H. pylori ATCC 43504)

[2] = system: T2, Acinetobacter baumannii ATCC 19606; test: microbe, parasite or virus in culture; parameters: species or system bacterial species; broth microdilution MIC in Mueller-Hinton broth, visible growth; settings: Acinetobacter baumannii, ATCC19606, 20 h
T2 construct: ATCC 19606
Protocol: (§1) Assessment of the spectrum of activity of malonic acid The spectrum of activity of malonic acid was assessed by determining malonic acid MIC against eight other pathogenic bacterial species (A. baumannii ATCC 19606, B. cenocepacia ATCC BAA-245, E. coli ATCC 25922, E. faecium ATCC 27270, E. faecalis ATCC 19433, K. pneumoniae ATCC 10031, P. aeruginosa ATCC 27856, and S. aureus ATCC 25923) using broth microdilution method, according to the CLSI guidelines ([CLSI, 2018]). Malonic acid solution was serially diluted in Muller-Hinton broth (100 μL) to get concentrations ranging from 6 to 0.19 mg/mL. The inoculum was prepared to be equivalent to 0.5 McFarland standard (containing approximately 1–2 × 10^8 CFU/mL with most species) and was further diluted 1:10 (to get a concentration of 10^7 CFU/mL). 10 μL of the diluted inoculum was transferred to each well to contain 5 × 10^5 CFU/mL. Plates were incubated at 37°C for 20 h. […] The experiment was carried out in triplicates. Malonic acid MIC was determined against other pathogenic species (A. baumannii ATCC 19606, B. cenocepacia ATCC BAA-245, E. coli ATCC 25922, E. faecium ATCC 27270, E. faecalis ATCC 19433, K. pneumoniae ATCC 10031, P. aeruginosa ATCC 27856, and S. aureus ATCC 25923) by the broth microdilution method.

[3] = system: T3, Burkholderia cepacia ATCC BAA-245; test: microbe, parasite or virus in culture; parameters: species or system bacterial species; broth microdilution MIC in Mueller-Hinton broth, visible growth; settings: Burkholderia cepacia, ATCCBAA245, 20 h
T3 construct: ATCC BAA-245
Protocol: as §1

[4] = system: T4, Enterococcus faecalis ATCC 19433; test: microbe, parasite or virus in culture; parameters: species or system bacterial species; broth microdilution MIC in Mueller-Hinton broth, visible growth; settings: Enterococcus faecalis, ATCC19433, 20 h
T4 construct: ATCC 19433
Protocol: as §1

[5] = system: T5, Enterococcus faecium ATCC 27270; test: microbe, parasite or virus in culture; parameters: species or system bacterial species; broth microdilution MIC in Mueller-Hinton broth, visible growth; settings: Enterococcus faecium, ATCC27270, 20 h
T5 construct: ATCC 27270
Protocol: as §1

[6] = system: T6, Escherichia coli ATCC 25922; test: microbe, parasite or virus in culture; parameters: species or system bacterial species; broth microdilution MIC in Mueller-Hinton broth, visible growth; settings: Escherichia coli, ATCC25922, 20 h
T6 construct: ATCC 25922
Protocol: as §1

[7] = system: T7, Klebsiella pneumoniae ATCC 10031; test: microbe, parasite or virus in culture; parameters: species or system bacterial species; broth microdilution MIC in Mueller-Hinton broth, visible growth; settings: Klebsiella pneumoniae, ATCC10031, 20 h
T7 construct: ATCC 10031
Protocol: as §1

[8] = system: T8, Pseudomonas aeruginosa ATCC 27856; test: microbe, parasite or virus in culture; parameters: species or system bacterial species; broth microdilution MIC in Mueller-Hinton broth, visible growth; settings: Pseudomonas aeruginosa, ATCC27856, 20 h
T8 construct: ATCC 27856
Protocol: as §1

[9] = system: T9, Staphylococcus aureus ATCC 25923; test: microbe, parasite or virus in culture; parameters: species or system bacterial species; broth microdilution MIC in Mueller-Hinton broth, visible growth; settings: Staphylococcus aureus, ATCC25923, 20 h
T9 construct: ATCC 25923
Protocol: as §1

[10] = system: T10, Helicobacter pylori ATCC 43504; test: microbe, parasite or virus in culture; parameters: MIC against H. pylori by agar dilution and broth microdilution, microaerophilic, visible growth; settings: ATCC43504, 72 h
T10 construct: ATCC 43504
Protocol: (§2) The MIC of malonic acid was determined by agar dilution and broth microdilution methods, against H. pylori ATCC 43504 and H. pylori HPM001 strains. Malonic acid (Loba, India) was dissolved in distilled water to the desired concentration, sterilized by a […] syringe filter, and used within 72 h of preparation. Inocula for MIC testing were prepared by suspending colonies in saline to reach an optical density equivalent to 2.0 McFarland turbidity standard (approximately 1×10^7 to 1×10^8 CFU/mL) ([CLSI, 2015]). The culture media used in MIC determination were freshly prepared, according to the manufacturer’s instruction, and supplemented with 1% yeast extract (LabM, United Kingdom) to enhance bacterial growth ([Walsh and Moran, 1997]). MIC determination by broth microdilution method was carried out in 96-well round-bottom micro-titre plates. […] The MIC of malonic acid was determined by agar dilution and broth microdilution methods against H. pylori ATCC 43504 and H. pylori HPM001. […] No significant difference was recorded between the MIC of malonic acid against H. pylori ATCC 43504 and H. pylori HPM001 using either the agar (p = 0.8529) or the broth microdilution methods (p = 0.8784). There was also no significant difference between the mean MIC of malonic acid recorded against the tested strains by both methods (p = 0.54).

[11] = system: T11, Helicobacter pylori HPM001; test: microbe, parasite or virus in culture; parameters: MIC against H. pylori by agar dilution and broth microdilution, microaerophilic, visible growth; settings: HPM001, 72 h
T11 construct: HPM001
Protocol: as §2

T1 sequence (P56065 1-24): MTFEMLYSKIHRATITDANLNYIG
T1 sequence (P56065 25-117): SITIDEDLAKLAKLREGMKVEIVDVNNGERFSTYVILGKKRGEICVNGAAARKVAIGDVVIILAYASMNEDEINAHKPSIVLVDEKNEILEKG

Compound | HPLC measurement of β-alanine produced from L-aspartate by purified 6xHis-tagged [1] | MIC [2] [µg/mL] | MIC [3] [µg/mL] | MIC [4] [µg/mL] | MIC [5] [µg/mL] | MIC [6] [µg/mL] | MIC [7] [µg/mL] | MIC [8] [µg/mL] | MIC [9] [µg/mL] | MIC [10] [µg/mL] | MIC [11] [µg/mL]
NC(CC(=O)O)C(=O)O [L-aspartate, 2-amino-butanedioic acid] | assaying β-alanine, the product of the enzymatic action of recombinant H. pylori 6x-His-tagged ADC on aspartate |  |  |  |  |  |  |  |  |  | 
O=C(O)CC(=O)O [MA, propanedioic acid] |  | 750 (≈ 7.21 mM) | 1000 ± 350 (≈ 9.61 mM) | 625 ± 180 (≈ 6.01 mM) | 1000 ± 350 (≈ 9.61 mM) | 750 (≈ 7.21 mM) | 1250 ± 350 (≈ 12 mM) | 625 ± 180 (≈ 6.01 mM) | 750 (≈ 7.21 mM) | 625 ± 180 (≈ 6.01 mM) | 750 (≈ 7.21 mM)

— publication PMC9746714, “Aspartate α-decarboxylase a new therapeutic target in the fight against Helicobacter pylori infection” (Frontiers in Microbiology, 2022)
